Test results: PMC4807281 (The Journal of Biological Chemistry, 2016)

Experiments:
DnaK [1] = target: T1, DnaK (Escherichia coli, UniProt P0A6Y8); assay: Peptide binding assay (fluorescence polarization), control/deglutathionylated DnaK; parameters: species or system E. coli; settings: ADP state; FP
T1 construct: His6-Smt3 (N, cleaved yes); made in house; host or cells: E. coli BL21(DE3)
Procedure: FP values are expressed in millipolarization units. All statistical analyses were performed with Origin 8 software.
FIGURE 6.

Hsp72 = system: Hsp72; parameters: method as in PMID 15540944; settings: modification at Cys-267; ref [62]; cited from earlier work
DnaK [2] = target: T1, DnaK; parameters: species or system E. coli; settings: 0.5 mM ATP or ADP premixed 30 min with DnaK T199A; GSH and diamide
Procedure: To deglutathionylate the protein, 10 mM DTT was added to the reaction mixture. GSH, diamide, and/or DTT was removed by dialysis.
(§1) Cooled protein was mixed with the dye and incubated in the dark at room temperature for at least 30 min. SDS-PAGE was performed to separate protein and surplus dye. Fluorescence of Alexa Fluor 350 dye was observed using excitation at 254 nm with a UV lamp.
(§2) FIGURE 3. […] Unmodified cysteine residues for untreated control, glutathionylated, and deglutathionylated samples were labeled with fluorescent dye.

DnaK [3] = target: T1, DnaK; parameters: species or system E. coli; settings: 1 mM ADP/ATP/NRLLLTG peptide, 1 h room temperature before DTNB; mean of three
Procedure: A standard curve was obtained using 0–100 μM free cysteine. […] The number of active cysteine residues can be calculated by dividing the concentration of free thiols in the protein by the concentration of protein.
FIGURE 1. […] The N-terminal NBD and its subdomains IA, IB, IIA, and IIB and the C-terminal SBD are indicated. […] The number of free thiols was calculated from the absorbance at 412 nm using a standard curve.

glutathionylated DnaK = target: T2, glutathionylated DnaK (Escherichia coli, UniProt P0A6Y8); assay: Deglutathionylation of glutathionylated DnaK by Grx3/GSH; parameters: species or system E. coli; settings: 10 μM glutathionylated DnaK, 30 min, 37 °C, […] Grx3 with 20 μM GSH
T2 construct: His6-Smt3 (N, cleaved yes); made in house; host or cells: E. coli BL21(DE3)
T2 sequence (P0A6Y8 2-638): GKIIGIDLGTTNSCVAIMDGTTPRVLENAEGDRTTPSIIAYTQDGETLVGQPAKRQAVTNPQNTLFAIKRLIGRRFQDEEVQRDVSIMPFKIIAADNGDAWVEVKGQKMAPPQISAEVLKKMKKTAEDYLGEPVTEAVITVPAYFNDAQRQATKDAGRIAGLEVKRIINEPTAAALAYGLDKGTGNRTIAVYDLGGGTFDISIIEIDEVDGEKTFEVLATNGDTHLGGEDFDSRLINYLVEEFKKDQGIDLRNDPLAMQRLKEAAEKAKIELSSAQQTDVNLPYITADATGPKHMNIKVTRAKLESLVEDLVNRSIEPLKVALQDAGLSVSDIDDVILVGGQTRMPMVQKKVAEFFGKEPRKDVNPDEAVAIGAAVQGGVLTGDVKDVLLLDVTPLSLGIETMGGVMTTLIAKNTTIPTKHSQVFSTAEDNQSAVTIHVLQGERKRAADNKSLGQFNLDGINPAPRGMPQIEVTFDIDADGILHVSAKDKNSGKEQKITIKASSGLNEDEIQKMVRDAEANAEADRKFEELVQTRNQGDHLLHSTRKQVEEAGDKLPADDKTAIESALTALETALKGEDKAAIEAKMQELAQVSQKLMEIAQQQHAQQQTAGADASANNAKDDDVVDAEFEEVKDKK
Procedure: […] GSH, diamide, and/or DTT was removed by dialysis.
as §1, §2

Ssa1 = system: Ssa1; parameters: method as in PMID 8939938, PMID 9753476, PMID 10462452; settings: absence of nucleotide; ref [56], [60], [61]; cited from earlier work
[4] = system: heat-induced luciferase aggregation; parameters: method as in PMID 15109915; settings: ref [68]; cited from earlier work

T1 sequence (P0A6Y8 2-638): as above

## CC(C)C[C@H](NC(=O)[C@H](C)NC(=S)Nc1ccc2c(c1)C(=O)OC21c2ccc(O)cc2Oc2cc(O)ccc21)C(=O)N[C@@H](CC(C)C)C(=O)N[C@@H](CC(C)C)C(=O)N[C@@H](CO)C(=O)N[C@@H](C)C(=O)N1CCC[C@H]1C(=O)N[C@@H](CCCNC(=N)N)C(=O)N[C@@H](CCCNC(=N)N)C(=O)O
DnaK [1]
  effect of ADP binding to DnaK on binding affinity of peptide: did not obviously alter the binding affinity of peptide

## CCCCCC(O)C=CC=O (stereo not drawn) [4-Hydroxy-2-nonenal]
Hsp72
  effect on protein refoldase activity of Hsp72: inhibits its protein refoldase activity

## Nc1ncnc2c1ncn2[C@@H]1O[C@H](COP(=O)(O)OP(=O)(O)O)[C@@H](O)[C@H]1O [ADP]
DnaK [2]
  effect on glutathionylation of DnaK: no glutathionylation of DnaK occurred
DnaK [3]
  effect on cysteine reactivity of DnaK: inhibited cysteine reactivity of DnaK to different degrees

## Nc1ncnc2c1ncn2[C@@H]1O[C@H](COP(=O)(O)OP(=O)(O)OP(=O)(O)O)[C@@H](O)[C@H]1O [ATP]
DnaK [2]
  effect on glutathionylation of DnaK: no glutathionylation of DnaK occurred
DnaK [3]
  effect on cysteine reactivity of DnaK: inhibited cysteine reactivity of DnaK to different degrees

## N[C@@H](CCC(=O)N[C@@H](CS)C(=O)NCC(=O)O)C(=O)O [GSH]
Glutathionylated DnaK
  deglutathionylation of DnaK: worked synergistically to cause deglutathionylation of DnaK

## CCN1C(=O)C=CC1=O [N-ethylmaleimide]
Ssa1
  effect of modification on Ssa1: reduces transmembrane transport as well as the ATPase and luciferase refolding activities of Ssa1

## Hsc70: Hsp70 family member whose glutathionylation is cited
[4]
  effect of glutathionylation of Hsc70: enhance inhibition of heat-induced luciferase aggregation
